Reference: patent US20110250290A1, “DISINFECTANT COMPOSITIONS” (priority 2006, published 2011)

Experiments:
[1] = system: Pseudomonas syringae pv. phaseolicola HB-9 planktonic; test: PspHB-9 planktonic susceptibility to Oxysilver and copper sulfate
[2] = system: Pseudomonas syringae pv. phaseolicola HB-9 biofilm; test: PspHB-9 biofilm susceptibility to Oxysilver and copper sulfate

Compound: O=S(=O)([O-])[O-].[Cu+2] [Copper sulfate]
- Bacteria growth PspHB-9 Planktonic, cell counts ([1]; 1250 ppm): 2.95 log10
- Bacteria growth PspHB-9 Planktonic, cell counts ([1]; 2900 ppm): 0 log10
- Bacteria growth PspHB-9 Planktonic, cell counts ([1]; 4600 ppm): 0 log10
- Bacteria/biofilm growth PspHB-9 Biofilm, cell counts ([2]; 1250 ppm): 5.15 log10
- Bacteria/biofilm growth PspHB-9 Biofilm, cell counts ([2]; 2900 ppm): 0 log10
- Bacteria/biofilm growth PspHB-9 Biofilm, cell counts ([2]; 4600 ppm): 0 log10
- concentration needed to be effective ([2]; planktonic and biofilm PspHB-9): at least 11460 ppm
